Like-named read-outs stand apart in the source and are kept apart here.
How the values were obtained:
[1] = test system: T1, Salmonella Typhimurium ATCC 14028 (STm); assay: microbe, parasite or virus in culture; parameters: Broth microdilution dose-response growth inhibition of STm in M9I, OD600, four-parameter fit; details: Salmonella enterica, read-out: IC50 (µM)
T1 construct: ATCC 14028
Protocol: Antimicrobial susceptibility was assessed using the traditional CLSI minimum inhibitory concentration (MIC) microplate dilution methods with a few modifications ([59]). Briefly, each compound (dissolved in MQ H2O for all pantetheinamides, or DMSO for pantothenamides) was serially diluted in 96-well plates to the desired concentrations. In the case of checkerboard assays, secondary compounds were separately diluted and added to the plate. Mid-exponential phase media-adapted bacteria were added at 5 × 10^5 CFU/mL and in the case of M9I or M9A cultures, the plates were sealed with a gas permeable moisture barrier seal (FroggaBio, Canada) to prevent excessive evaporation, before incubation at 37 °C and 350 rpm, using a tabletop orbital plate shaker (OHAUS, USA). Growth was quantified based on absorbance at 600 nm (OD600) using a microplate reader. The plate was monitored until there was visible growth in the untreated control, but without allowing for overgrowth: ∼14-16h (OD600 > 0.3) in MHB, ∼36 h (OD600 > 0.2) in M9A, and ∼72-120 h (OD600 > 0.15) in M9I. The IC50 was determined using a four-parameter logarithmic curve on Prism v9.0. All experiments were done at minimum in a biological triplicate. […] Consequently, the activity was reported as an IC50 value, rather than traditional MICs. […] All other categories had 2-4 molecules with sub-100 μM IC50 values. The general trend in activities for the substituents β to the acyl amide saw CF3 (e.g. 4-01) > thiazole (e.g. 5-01) > NO2 (e.g. 1-01) > CH3 (e.g. 3-01). […] Replacement of the thioester with either a sulfonamide or triazole, rather than an amide, was detrimental to activity. […] Furthermore, increasing the conformational rigidity of the α-substituent correlated with higher IC50 values (e.g, 1-14, methyl < 1-15, dimethyl < 1-16, cyclo  Fig. 2: Screening the pantetheinamides library. a, Percentage growth inhibition of STm by each of the inhibitors in the library, tested at 500 µM in MHB, M9A, or M9I as the sole carbon source. Inhibition % values are summarized in Supplementary Data 1. b, The IC50 in M9I of a subset of the inhibitor library. The full dataset is shown in Fig. S1 and summarized in Supplementary Data 2. c, Dose-response curves in M9I, M9A, and MHB for selected inhibitors, fit to a four-parameter logarithmic curve. d, Tabulated IC50 (± 95% CI), cytotoxicity and selectivity index (given as the cytoxocity/IC50 in M9I) for the same inhibitors as in c. […] The full dataset is shown in Fig. S4a. g, Sample of results summarized in f showing the CFU of surviving STm inside the compound treated macrophages after 22 h. Data bars show the geometric mean of CFU/mL with error bars depicting the 95% CI. The vehicle control (± 95% CI) is shown as the red line. All experiments were independently repeated a minimum of 3 times, where n ≥ 4 for each condition. Significant results were determined using a one-way ANOVA with Dunnett’s multiple comparisons against the vehicle. ✱, p < 0.05; ✱✱, p < 0.01; ✱✱✱, p < 0.001; ✱✱✱✱, p < 0.0001; ns, non-significant, p > 0.05. “X” denotes that a concentration was omitted from the experiment due to toxicity.

[2] = test system: T1, Salmonella Typhimurium ATCC 14028 (STm); assay: microbe, parasite or virus in culture; parameters: Broth microdilution growth inhibition of STm at 500 uM in MHB, M9A or M9I, OD600; details: Salmonella enterica
Protocol: Antimicrobial susceptibility was assessed using the traditional CLSI minimum inhibitory concentration (MIC) microplate dilution methods with a few modifications ([59]). Briefly, each compound (dissolved in MQ H2O for all pantetheinamides, or DMSO for pantothenamides) was serially diluted in 96-well plates to the desired concentrations. In the case of checkerboard assays, secondary compounds were separately diluted and added to the plate. Mid-exponential phase media-adapted bacteria were added at 5 × 10^5 CFU/mL and in the case of M9I or M9A cultures, the plates were sealed with a gas permeable moisture barrier seal (FroggaBio, Canada) to prevent excessive evaporation, before incubation at 37 °C and 350 rpm, using a tabletop orbital plate shaker (OHAUS, USA). Growth was quantified based on absorbance at 600 nm (OD600) using a microplate reader. The plate was monitored until there was visible growth in the untreated control, but without allowing for overgrowth: ∼14-16h (OD600 > 0.3) in MHB, ∼36 h (OD600 > 0.2) in M9A, and ∼72-120 h (OD600 > 0.15) in M9I. The IC50 was determined using a four-parameter logarithmic curve on Prism v9.0. All experiments were done at minimum in a biological triplicate. […] To accomplish this, the compounds were screened for their ability to reduce STm growth at a high concentration (500 μM) in various media that reflect nutrient-related facets of either extracellular or intracellular environments (Fig. 2a). Mueller-Hinton broth (MHB)—the medium most widely employed for antibacterial testing—was used to represent nutrient-rich extracellular environments such as the gut, while aspects of the nutrient-limited intramacrophage environment were mimicked by using M9-minimal media containing either acetate (M9A) or itaconate (M9I) as the sole carbon source. Growth in M9A requires the glyoxylate shunt, simulating the use of fatty acids ([33]), whereas growth in M9I, as shown in our previous study, requires an active itaconate-degradation pathway and induces excess oxidative stress that is reflective of the intramacrophage environment ([34]). Of the 75 compounds tested, 31 inhibited growth (by >50%) in M9I, six in M9A, and one in MHB. […] In particular, the pantothenamides 6-13 and 6-14 were active in M9A as well as M9I, with 6-13 being the only MHB active compounds. The other M9A active compounds were 1-03 and 1-17 from the “nitro” category and 4-02 and 4-08 from the “fluoro-alkyl” category.  Fig. 2: Screening the pantetheinamides library. a, Percentage growth inhibition of STm by each of the inhibitors in the library, tested at 500 µM in MHB, M9A, or M9I as the sole carbon source. Inhibition % values are summarized in Supplementary Data 1. b, The IC50 in M9I of a subset of the inhibitor library. The full dataset is shown in Fig. S1 and summarized in Supplementary Data 2. c, Dose-response curves in M9I, M9A, and MHB for selected inhibitors, fit to a four-parameter logarithmic curve. d, Tabulated IC50 (± 95% CI), cytotoxicity and selectivity index (given as the cytoxocity/IC50 in M9I) for the same inhibitors as in c. […] The full dataset is shown in Fig. S4a. g, Sample of results summarized in f showing the CFU of surviving STm inside the compound treated macrophages after 22 h. Data bars show the geometric mean of CFU/mL with error bars depicting the 95% CI. The vehicle control (± 95% CI) is shown as the red line. All experiments were independently repeated a minimum of 3 times, where n ≥ 4 for each condition. Significant results were determined using a one-way ANOVA with Dunnett’s multiple comparisons against the vehicle. ✱, p < 0.05; ✱✱, p < 0.01; ✱✱✱, p < 0.001; ✱✱✱✱, p < 0.0001; ns, non-significant, p > 0.05. “X” denotes that a concentration was omitted from the experiment due to toxicity.

[3] = M9A, acetate minimal medium, 36 h, read-out: % Growth Inhibition (Avg) / M9A
[4] = M9I, itaconate minimal medium, 72-120 h, read-out: % Growth Inhibition (Avg) / M9I
[5] = MHB, nutrient-rich medium, 14-16 h, read-out: % Growth Inhibition (Avg) / MHB

CC(C)(CO)[C@@H](O)C(=O)NCCC(=O)NCCNC(=O)C(F)C(F)(F)F (some centres unmarked) [4-07]
IC50 [1]: 30 µM | inhibition at 500 µM [2, 3]: 15% | inhibition at 500 µM [2, 4]: 94% | inhibition at 500 µM [2, 5]: 1%

CC(C)(CO)[C@@H](O)C(=O)NCCC(=O)NCCNC(=O)C1CC1(F)F (some centres unmarked) [4-10]
IC50 [1]: 29 µM | inhibition at 500 µM [2, 3]: 0% | inhibition at 500 µM [2, 4]: 86% | inhibition at 500 µM [2, 5]: 11%

CC(C)(CO)[C@@H](O)C(=O)NCCC(=O)NCCNC(=O)/C=C/C(F)(F)F [4-04]
IC50 [1]: 5.1 µM | inhibition at 500 µM [2, 3]: 37% | inhibition at 500 µM [2, 4]: 94% | inhibition at 500 µM [2, 5]: 0%

CCCCCCCC(=O)NCCNC(=O)[C@H](O)C(C)(C)CO [6-14]
IC50 [1]: 1.1 µM | inhibition at 500 µM [2, 3]: 98% | inhibition at 500 µM [2, 4]: 99% | inhibition at 500 µM [2, 5]: 16%

CCCCCCCNC(=O)CCNC(=O)[C@H](O)C(C)(C)CO [6-13]
IC50 [1]: 0.13 µM | inhibition at 500 µM [2, 3]: 100% | inhibition at 500 µM [2, 4]: 100% | inhibition at 500 µM [2, 5]: 90%
